Assay results from US20230085307A1, “PYRIDAZINONE COMPOUND AND HERBICIDE” (NISSAN CHEMICAL CORPORATION, priority 2019, published 2023).

Legend:
persian speedwell [1] = assay: Test Example 4: herbicidal effect by soil treatment (Table 19, symbol R); format: in vivo, Persian speedwell (Veronica persica); conditions: amount of applied herbicide 320 g/ha
Procedure, shortened: (§1)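 Emulsion of test compound, water-diluted to predetermined amount, sprayed on soil after sowing (seed depth ~1.5 cm, sterilized diluvial soil). Greenhouse, 25–30° C. Effect graded at three weeks post-spray.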

windgrass [2] = assay: Test Example 4: herbicidal effect by soil treatment (Table 19, symbol L); format: in vivo, windgrass (Apera spica-venti); conditions: amount of applied herbicide 320 g/ha
Procedure, shortened: as §1

velvetleaf [3] = assay: Test Example 4: herbicidal effect by soil treatment (Table 19, symbol M); format: in vivo, velvetleaf (Abutilon theophrasti); conditions: amount of applied herbicide 320 g/ha
Procedure, shortened: as §1

lambsquarters [4] = assay: Test Example 5: herbicidal effect by foliage application, plastic box (Table 20, symbol O); format: in vivo, lambsquarters (Chenopodium album); conditions: foliage application, three weeks after application
Procedure, shortened: (§2)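 Post-emergence foliar test in sterilized diluvial soil. Compound applied as water-diluted emulsion at a predetermined rate to 14-day-old plants; evaluation at three weeks.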

green foxtail [5] = assay: Test Example 4: herbicidal effect by soil treatment (Table 19, symbol G); format: in vivo, green foxtail (Setaria viridis); conditions: amount of applied herbicide 320 g/ha
Procedure, shortened: as §1

blackgrass [6] = assay: Test Example 4: herbicidal effect by soil treatment (Table 19, symbol J); format: in vivo, blackgrass (Alopecurus myosuroides); conditions: amount of applied herbicide 320 g/ha
Procedure, shortened: as §1

chickweed [7] = assay: Test Example 5: herbicidal effect by foliage application, plastic box (Table 20, symbol P); format: in vivo, common chickweed (Stellaria media); conditions: foliage application, AAH 320 g/ha, three weeks after application
Procedure, shortened: as §2

lambsquarters [8] = assay: Test Example 4: herbicidal effect by soil treatment (Table 19, symbol O); format: in vivo, lambsquarters (Chenopodium album); conditions: amount of applied herbicide 320 g/ha
Procedure, shortened: as §1

false cleavers [9] = assay: Test Example 5: herbicidal effect by foliage application, plastic box (Table 20, symbol Q); format: in vivo, false cleavers (Galium spurium); conditions: foliage application, three weeks after application
Procedure, shortened: as §2

southern crabgrass [10] = assay: Test Example 4: herbicidal effect by soil treatment (Table 19, symbol F); format: in vivo, southern crabgrass (Digitaria ciliaris); conditions: amount of applied herbicide 320 g/ha
Procedure, shortened: as §1

barnyard grass [11] = assay: Test Example 4: herbicidal effect by soil treatment (Table 19, symbol H); format: in vivo, barnyard grass (Echinochloa crus-galli); conditions: amount of applied herbicide 320 g/ha
Procedure, shortened: as §1

windgrass [12] = assay: Test Example 5: herbicidal effect by foliage application, plastic box (Table 20, symbol L); format: in vivo, windgrass (Apera spica-venti); conditions: foliage application, three weeks after application
Procedure, shortened: as §2

chickweed [13] = assay: Test Example 4: herbicidal effect by soil treatment (Table 19, symbol P); format: in vivo, common chickweed (Stellaria media); conditions: amount of applied herbicide 320 g/ha
Procedure, shortened: as §1

Italian ryegrass [14] = assay: Test Example 4: herbicidal effect by soil treatment (Table 19, symbol K); format: in vivo, Italian ryegrass (Lolium multiflorum); conditions: amount of applied herbicide 320 g/ha
Procedure, shortened: as §1

false cleavers [15] = assay: Test Example 4: herbicidal effect by soil treatment (Table 19, symbol Q); format: in vivo, false cleavers (Galium spurium); conditions: amount of applied herbicide 320 g/ha
Procedure, shortened: as §1

redroot pigweed = assay: Test Example 4: herbicidal effect by soil treatment (Table 19, symbol N); format: in vivo, redroot pigweed (Amaranthus retroflexus); conditions: amount of applied herbicide 320 g/ha
Procedure, shortened: as §1

green foxtail [16] = assay: Test Example 5: herbicidal effect by foliage application, plastic box (Table 20, symbol G); format: in vivo, green foxtail (Setaria viridis); conditions: foliage application, three weeks after application
Procedure, shortened: as §2

velvetleaf [17] = assay: Test Example 5: herbicidal effect by foliage application, plastic box (Table 20, symbol M); format: in vivo, velvetleaf (Abutilon theophrasti); conditions: foliage application, three weeks after application
Procedure, shortened: as §2

rice flat sedge = assay: Test Example 3: herbicidal effect by foliage application, Wagner pot (Table 18, symbol E); format: in vivo, rice flat sedge (Cyperus iria)
Procedure, shortened: (§3)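 Plants were sown in alluvial soil held under 0.1–0.5 cm standing water and grown 14 days in a greenhouse at 25–30 °C. An emulsifiable formulation, water-diluted to the set dose, was then sprayed onto the foliage, and effects were scored three weeks later using previously defined criteria.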

barnyard grass [18] = assay: Test Example 3: herbicidal effect by foliage application, Wagner pot (Table 18, symbol H); format: in vivo, barnyard grass (Echinochloa crus-galli)
Procedure, shortened: as §3

blackgrass [19] = assay: Test Example 5: herbicidal effect by foliage application, plastic box (Table 20, symbol J); format: in vivo, blackgrass (Alopecurus myosuroides); conditions: foliage application, three weeks after application
Procedure, shortened: as §2

Italian ryegrass [20] = assay: Test Example 5: herbicidal effect by foliage application, plastic box (Table 20, symbol K); format: in vivo, Italian ryegrass (Lolium multiflorum); conditions: foliage application, three weeks after application
Procedure, shortened: as §2

persian speedwell [21] = assay: Test Example 5: herbicidal effect by foliage application, plastic box (Table 20, symbol R); format: in vivo, Persian speedwell (Veronica persica); conditions: foliage application, three weeks after application
Procedure, shortened: as §2

barnyard grass [22] = assay: Test Example 5: herbicidal effect by foliage application, plastic box (Table 20, symbol H); format: in vivo, barnyard grass (Echinochloa crus-galli); conditions: foliage application, three weeks after application
Procedure, shortened: as §2

Chinese sprangletop = assay: Test Example 3: herbicidal effect by foliage application, Wagner pot (Table 18, symbol D); format: in vivo, chinese sprangletop (Leptochloa chinensis)
Procedure, shortened: as §3

southern crabgrass [23] = assay: Test Example 5: herbicidal effect by foliage application, plastic box (Table 20, symbol F); format: in vivo, southern crabgrass (Digitaria ciliaris); conditions: foliage application, three weeks after application
Procedure, shortened: as §2

wild oat [24] = assay: Test Example 4: herbicidal effect by soil treatment (Table 19, symbol I); format: in vivo, wild oat (Avena fatua); conditions: amount of applied herbicide 320 g/ha
Procedure, shortened: as §1

wild oat [25] = assay: Test Example 5: herbicidal effect by foliage application, plastic box (Table 20, symbol I); format: in vivo, wild oat (Avena fatua); conditions: foliage application, three weeks after application
Procedure, shortened: as §2

[26] = amount of applied herbicide 320 g/ha

Structure (SMILES): Cc1nn(C)c(=O)c(-c2c(-c3ccc4c(c3)OC(F)(F)O4)sc3ccccc23)c1O [1-099]
- herbicidal effect rating, R: persian speedwell (persian speedwell [1]): 5 (Herbicidal rate of 90% or more (almost completely withered))
- herbicidal effect rating, L: windgrass (windgrass [2]): 0 (Herbicidal rate of 5% or less (almost no effect))
- herbicidal effect rating, M: velvetleaf (velvetleaf [3]): 0 (Herbicidal rate of 5% or less (almost no effect))
- O: lambsquarters, herbicidal effect (lambsquarters [4]; AAH 320 g/ha): 3 (Herbicidal rate of 40% or more and less than 70%)
- herbicidal effect rating, G: green foxtail (green foxtail [5]): 0 (Herbicidal rate of 5% or less (almost no effect))
- herbicidal effect rating, J: blackgrass (blackgrass [6]): 0 (Herbicidal rate of 5% or less (almost no effect))
- P: chickweed, herbicidal effect (chickweed [7]): 5 (Herbicidal rate of 90% or more (almost completely withered))
- herbicidal effect rating, O: lambsquarters (lambsquarters [8]): 0 (Herbicidal rate of 5% or less (almost no effect))
- Q: false cleavers, herbicidal effect (false cleavers [9]; AAH 320 g/ha): 2 (Herbicidal rate of 20% or more and less than 40%)
- herbicidal effect rating, F: southern crabgrass (southern crabgrass [10]): 0 (Herbicidal rate of 5% or less (almost no effect))
- herbicidal effect rating, H: barnyard grass (barnyard grass [11]): 0 (Herbicidal rate of 5% or less (almost no effect))
- L: windgrass, herbicidal effect (windgrass [12]; AAH 320 g/ha): 0 (Herbicidal rate of 5% or less (almost no effect))
- herbicidal effect rating, P: chickweed (chickweed [13]): 4 (Herbicidal rate of 70% or more and less than 90%)
- herbicidal effect rating, K: Italian ryegrass (Italian ryegrass [14]): 0 (Herbicidal rate of 5% or less (almost no effect))
- herbicidal effect rating, Q: false cleavers (false cleavers [15]): 2 (Herbicidal rate of 20% or more and less than 40%)
- herbicidal effect rating, N: redroot pigweed (redroot pigweed): 0 (Herbicidal rate of 5% or less (almost no effect))
- G: green foxtail, herbicidal effect (green foxtail [16]; AAH 320 g/ha): 0 (Herbicidal rate of 5% or less (almost no effect))
- M: velvetleaf, herbicidal effect (velvetleaf [17]; AAH 320 g/ha): 5 (Herbicidal rate of 90% or more (almost completely withered))
- herbicidal effect on E (rice flat sedge), rating 0-5 (rice flat sedge; 320 g/ha): 5 (Herbicidal rate of 90% or more (almost completely withered))
- herbicidal effect on H (barnyard grass), rating 0-5 (barnyard grass [18]; 320 g/ha): 0 (Herbicidal rate of 5% or less (almost no effect))
- J: blackgrass, herbicidal effect (blackgrass [19]; AAH 320 g/ha): 1 (Herbicidal rate of 5% or more and less than 20%)
- K: Italian ryegrass, herbicidal effect (Italian ryegrass [20]; AAH 320 g/ha): 3 (Herbicidal rate of 40% or more and less than 70%)
- R: persian speedwell, herbicidal effect (persian speedwell [21]; AAH 320 g/ha): 5 (Herbicidal rate of 90% or more (almost completely withered))
- H: barnyard grass, herbicidal effect (barnyard grass [22]; AAH 320 g/ha): 0 (Herbicidal rate of 5% or less (almost no effect))
- herbicidal effect on D (Chinese sprangletop), rating 0-5 (Chinese sprangletop; 320 g/ha): 0 (Herbicidal rate of 5% or less (almost no effect))
- F: southern crabgrass, herbicidal effect (southern crabgrass [23]; AAH 320 g/ha): 0 (Herbicidal rate of 5% or less (almost no effect))
- herbicidal effect rating, I: wild oat (wild oat [24]): 0 (Herbicidal rate of 5% or less (almost no effect))
- I: wild oat, herbicidal effect (wild oat [25]; AAH 320 g/ha): 0 (Herbicidal rate of 5% or less (almost no effect))

Structure (SMILES): COc1cc(F)ccc1-c1oc2ccccc2c1-c1c(O)c(C)nn(C)c1=O [8-001]
- R: persian speedwell, herbicidal effect grade (persian speedwell [1]): 0 (Herbicidal rate of 5% or less (almost no effect))
- L: windgrass, herbicidal effect grade (windgrass [2]): 0 (Herbicidal rate of 5% or less (almost no effect))
- M: velvetleaf, herbicidal effect grade (velvetleaf [3]): 0 (Herbicidal rate of 5% or less (almost no effect))
- herbicidal effect on lambsquarters (O) (lambsquarters [4]; 320 g/ha): 3 (Herbicidal rate of 40% or more and less than 70%)
- G: green foxtail, herbicidal effect grade (green foxtail [5]): 0 (Herbicidal rate of 5% or less (almost no effect))
- J: blackgrass, herbicidal effect grade (blackgrass [6]): 0 (Herbicidal rate of 5% or less (almost no effect))
- O: lambsquarters, herbicidal effect grade (lambsquarters [8]): 0 (Herbicidal rate of 5% or less (almost no effect))
- herbicidal effect on false cleavers (Q) (false cleavers [9]; 320 g/ha): 4 (Herbicidal rate of 70% or more and less than 90%)
- F: southern crabgrass, herbicidal effect grade (southern crabgrass [10]): 0 (Herbicidal rate of 5% or less (almost no effect))
- H: barnyard grass, herbicidal effect grade (barnyard grass [11]): 0 (Herbicidal rate of 5% or less (almost no effect))
- herbicidal effect on windgrass (L) (windgrass [12]; 320 g/ha): 5 (Herbicidal rate of 90% or more (almost completely withered))
- P: chickweed, herbicidal effect grade (chickweed [13]): 0 (Herbicidal rate of 5% or less (almost no effect))
- K: Italian ryegrass, herbicidal effect grade (Italian ryegrass [14]): 0 (Herbicidal rate of 5% or less (almost no effect))
- Q: false cleavers, herbicidal effect grade (false cleavers [15]): 0 (Herbicidal rate of 5% or less (almost no effect))
- N: redroot pigweed, herbicidal effect grade (redroot pigweed): 0 (Herbicidal rate of 5% or less (almost no effect))
- herbicidal effect on green foxtail (G) (green foxtail [16]; 320 g/ha): 3 (Herbicidal rate of 40% or more and less than 70%)
- herbicidal effect on velvetleaf (M) (velvetleaf [17]; 320 g/ha): 3 (Herbicidal rate of 40% or more and less than 70%)
- Herbicidal effect on E (rice flat sedge), foliage application (rice flat sedge; [26]): 1 (Herbicidal rate of 5% or more and less than 20%)
- Herbicidal effect on H (barnyard grass), foliage application (barnyard grass [18]; [26]): 4 (Herbicidal rate of 70% or more and less than 90%)
- herbicidal effect on blackgrass (J) (blackgrass [19]; 320 g/ha): 0 (Herbicidal rate of 5% or less (almost no effect))
- herbicidal effect on Italian ryegrass (K) (Italian ryegrass [20]; 320 g/ha): 3 (Herbicidal rate of 40% or more and less than 70%)
- herbicidal effect on persian speedwell (R) (persian speedwell [21]; 320 g/ha): 4 (Herbicidal rate of 70% or more and less than 90%)
- herbicidal effect on barnyard grass (H) (barnyard grass [22]; 320 g/ha): 3 (Herbicidal rate of 40% or more and less than 70%)
- Herbicidal effect on D (Chinese sprangletop), foliage application (Chinese sprangletop; [26]): 3 (Herbicidal rate of 40% or more and less than 70%)
- herbicidal effect on southern crabgrass (F) (southern crabgrass [23]; 320 g/ha): 0 (Herbicidal rate of 5% or less (almost no effect))
- I: wild oat, herbicidal effect grade (wild oat [24]): 3 (Herbicidal rate of 40% or more and less than 70%)
- herbicidal effect on wild oat (I) (wild oat [25]; 320 g/ha): 3 (Herbicidal rate of 40% or more and less than 70%)
